The nature of data set [1]: in vitro. To be noted: SD, HW or BN, rat, plasma.
A short description of data set [2]: in vitro. To be noted: human.
Data set [3] can be described thus: in vitro. To be noted: hepatocytes.
A short description of data set [4]: physchem.
Data set [5] is described as follows: physchem. Conditions: octan-1-ol/water.
Data set [6] can be described thus: in vitro. To be noted: human, plasma.
A short description of data set [7]: physchem. To be noted: pH 7.4 buffer.

SMILES strings stand for the structures. ≈ marks a conversion by molar mass, not a printed value.

The term fraction unbound denotes free concentration divided by total concentration. Read a high fraction unbound as weak binding. By microsomal CLint is commonly meant the capacity of the preparation to metabolise the compound, expressed as a volume cleared per time. As a reminder, the hepatocyte CLint is a measure of how fast metabolising enzymes remove a compound, apart from limits set by blood flow. The term pKa denotes the pH at which an ionisable group is half protonated. High values mean a group that holds its proton tightly, low ones a group that gives up its proton readily. What is called logD is the decadic logarithm of the distribution of all forms, ionised or not, between an organic phase and buffer at a given pH. Read a low logD as lower lipophilicity. In general, thermodynamic solubility refers to the concentration in solution at equilibrium with solid.

The compound `Cc1nn(-c2ccccc2)c(NC(=O)NS(=O)(=O)c2ccc(Cl)cc2)c1C#N` showed an unbound share (fraction unbound) at 5 h in “in vitro [1]” of 0.0175. For the same compound, the microsomal CLint in “in vitro [2]” (microsomes) was below 3 µL/min/mg. Further, in the data set “in vitro [3]”, the hepatocyte CLint was found to be 21.5 µL/min/1e6 cells. The pKa in “physchem [4]” worked out at 2.3.

In turn, `CC1=C(CC(=O)O)c2cc(F)ccc2/C1=C\c1ccc([S+](C)[O-])cc1` (centres undefined) came in with a pH-dependent lipophilicity (logD) in the data set “physchem [5]” (pH 7.4, LogD7.4) of -0.01. The microsomal CLint in “in vitro [2]” (liver microsomes) was below 3 µL/min/mg. In addition, the pKa in “physchem [4]” came out at 3.9.

With `O=C(O)COc1ccc([N+](=O)[O-])cc1-c1ccccc1`, the logD in “physchem [5]” (pH 7.4, LogD7.4) was -0.69. The fraction unbound at 5 h in the data set “in vitro [6]” (PPB) was 0.0041. This compound also had a pKa in “physchem [4]” of 2.7.

As to `CCS(=O)(=O)c1ccc(-c2cc(C(F)(F)F)ccc2OCC(=O)O)c(Cl)c1`, in the data set “in vitro [1]”, the fraction unbound at 5 h was 0.0313. This compound yielded a microsomal CLint in the data set “in vitro [2]” (liver microsomes) below 3 µL/min/mg. Moreover, the pKa in “physchem [4]” stood at 3.3.

In “in vitro [6]” (PPB), `CCS(=O)(=O)c1ccc(-c2cc(C(F)(F)F)ccc2CCC(=O)O)c(C)c1` gave a fraction unbound at 5 h of 0.0256. In “in vitro [2]” (liver microsomes), this compound registered an intrinsic clearance (microsomal CLint) below 3 µL/min/mg. The same compound registered a pKa in “physchem [4]” of 4.2.

In “in vitro [2]” (liver microsomes), `N#Cc1cn(Cc2ccco2)c(=O)[nH]c1=O` showed a microsomal CLint below 3 µL/min/mg. In “physchem [4]”, this compound showed a pKa of 6.1.

`CCC(CC)NC(=O)c1nnn(-c2ccccc2)c1NS(=O)(=O)c1ccc(C)cc1`: the logD in the data set “physchem [5]” (pH 7.4, LogD7.4) amounted to 0.46. This compound had a free fraction (fraction unbound) at 5 h in the data set “in vitro [6]” (PPB) of 0.0072. In “in vitro [2]” (liver microsomes), the microsomal CLint was found to be 35 µL/min/mg. Further, the intrinsic clearance (hepatocyte CLint) in “in vitro [3]” is 56 µL/min/1e6 cells. In the data set “physchem [4]”, this compound yielded a pKa of 3.3.

`CCC(CC)NC(=O)c1cn(-c2ccccc2)nc1NS(=O)(=O)c1ccc(C)cc1` showed a logD in “physchem [5]” (pH 7.4, LogD7.4) of 2.51. In addition, the solubility (thermodynamic) in “physchem [7]” worked out at 174 µM (≈ 74.1 µg/mL). Also, the unbound share (fraction unbound) at 5 h in “in vitro [6]” (PPB) is 0.0013; in the data set “in vitro [1]”, 0.0033. Moreover, the microsomal CLint in the data set “in vitro [2]” (liver microsomes) came out at 9 µL/min/mg. Moreover, the hepatocyte CLint in “in vitro [3]” came out at 7 µL/min/1e6 cells. This compound also showed a pKa in “physchem [4]” of 5.3.

As for `Cc1ccc(S(=O)(=O)Nc2c(C(=O)N[C@@H](C)C(C)(C)C)c(C(F)(F)F)nn2-c2ccccc2)cc1`, the fraction unbound at 5 h was 0.0043 in the data set “in vitro [6]” (PPB) and 0.0097 in “in vitro [1]”. The compound also displayed a microsomal CLint in “in vitro [2]” (liver microsomes) of 120 µL/min/mg. In the data set “in vitro [3]”, this compound yielded an intrinsic clearance (hepatocyte CLint) of 18.8 µL/min/1e6 cells. The compound also yielded a pKa in the data set “physchem [4]” of 3.8.

Take `Cc1ccc2c(c1)c(Sc1ccc(Cl)cc1)c(C)n2CC(=O)O`: the logD in “physchem [5]” (pH 7.4, LogD7.4) amounted to 2.18. In “in vitro [2]” (liver microsomes), this compound showed a microsomal CLint of 7 µL/min/mg. Also, the pKa in “physchem [4]” was 4.1.

For `CCC(CC)NC(=O)c1c(C)nn(C(C)C)c1NS(=O)(=O)c1ccc(C)cc1`, the logD in the data set “physchem [5]” (pH 7.4, LogD7.4) is 0.92. The fraction unbound at 5 h was 0.035 in “in vitro [6]” (PPB) and 0.089 in “in vitro [1]”. In the data set “physchem [4]”, the pKa worked out at 4.7.

As to `Cc1ccc(S(=O)(=O)Nc2c(C(=O)N[C@@H](C)C(C)(C)C)c(C)nn2C(C)(C)C)cc1`, in the data set “physchem [5]” (pH 7.4, LogD7.4), the pH-dependent lipophilicity (logD) is 1.84. In addition, the thermodynamic solubility in the data set “physchem [7]” is 513 µM (≈ 223 µg/mL). Besides, the microsomal CLint in “in vitro [2]” (microsomes) was determined as 37 µL/min/mg. The compound also had a pKa in “physchem [4]” of 5.5.

Consider `CCC(CC)n1nc(C)c(C(=O)N[C@@H](C)C(C)(C)C)c1NS(=O)(=O)c1ccc(C)cc1`, for which the logD in “physchem [5]” (pH 7.4, LogD7.4) was 1.88. Moreover, the values for the fraction unbound at 5 h in “in vitro [6]” (PPB) and in “in vitro [1]” were 0.02 and 0.0818, respectively. In “physchem [4]”, this compound returned a pKa of 4.6.

In turn, `COc1nc(Cl)c(Cl)nc1NS(=O)(=O)c1ccc(Cl)s1` had a fraction unbound at 5 h in the data set “in vitro [6]” (PPB) of 0.0008. The microsomal CLint in “in vitro [2]” (liver microsomes) is 10 µL/min/mg. In the data set “physchem [4]”, this compound yielded a pKa of 3.6.

In “physchem [5]” (pH 7.4, LogD7.4), `COCCNc1nc(N)c2nc(O)n(Cc3ccccc3)c2n1` yielded a logD of 2.18. Besides, the free fraction (fraction unbound) at 5 h in “in vitro [6]” (PPB) was 0.208. In “in vitro [2]” (liver microsomes), this compound displayed a microsomal CLint of 5.5 µL/min/mg. This compound registered a pKa in the data set “physchem [4]” of 10.

Regarding `O=C(O)c1ccc(CN2CCC(CN3CCC(Oc4ccc(Cl)c(Cl)c4)CC3)CC2)cc1`, the microsomal CLint in “in vitro [2]” (liver microsomes) was below 3 µL/min/mg. Besides, the pKa in “physchem [4]” was determined as 3.5.

With `CN(C)c1ccc(S(=O)(=O)NC(=O)N2CCC(N3CCC(Oc4ccc(Cl)c(Cl)c4)CC3)CC2)cc1`, in the data set “physchem [5]” (pH 7.4, LogD7.4), the logD was determined as 1.7. This compound also gave a fraction unbound at 5 h in the data set “in vitro [6]” (PPB) of 0.0017. The microsomal CLint in “in vitro [2]” (liver microsomes) turned out to be 10.5 µL/min/mg. In addition, in the data set “physchem [4]”, the pKa came out at 6.1.

`Cc1ccccc1S(=O)(=O)NC(=O)N1CCC(N2CCC(Oc3ccc(Cl)c(Cl)c3)CC2)CC1` displayed a logD in the data set “physchem [5]” (pH 7.4, LogD7.4) of 1.71. Further, in the data set “in vitro [6]” (PPB), the fraction unbound at 5 h is 0.105. The compound also showed a pKa in the data set “physchem [4]” of 3.4.

`O=C(Nc1ccc([N+](=O)[O-])cc1O)Nc1ccccc1Br` had a logD in “physchem [5]” (pH 7.4, LogD7.4) of 3.9. Further, the fraction unbound at 5 h in the data set “in vitro [6]” (PPB) was 0.0027. Also, in “physchem [4]”, the pKa turned out to be 7.7.

In turn, `N#Cc1ccc2[nH]c(-c3ccc(F)cc3)c(CCCC(=O)NS(N)(=O)=O)c2c1` displayed a logD in “physchem [5]” (pH 7.4, LogD7.4) of 1.95. The compound also gave a solubility (thermodynamic) in “physchem [7]” of 26.9 µM (≈ 10.8 µg/mL). The fraction unbound at 5 h in the data set “in vitro [6]” (PPB) was 0.0146. The compound also returned a microsomal CLint in “in vitro [2]” (liver microsomes) below 3 µL/min/mg. Besides, in the data set “in vitro [3]”, the hepatocyte CLint came to 19.6 µL/min/1e6 cells. Further, the pKa in the data set “physchem [4]” is 5.9.

On to `Nc1nc2nc(SCc3ccccc3)[nH]c(=O)c2s1`, for which the microsomal CLint in the data set “in vitro [2]” (liver microsomes) was below 3 µL/min/mg. Also, the pKa in “physchem [4]” was found to be 7.1.

In turn, `CS(=O)(=O)NC(=O)CCCc1c(-c2ccc(F)cc2)[nH]c2ccc(C#N)cc12` yielded a logD in the data set “physchem [5]” (pH 7.4, LogD7.4) of 1.5. For the same compound, the fraction unbound at 5 h in “in vitro [6]” (PPB) was 0.013. Further, in “in vitro [2]” (microsomes), the intrinsic clearance (microsomal CLint) was below 3 µL/min/mg. Further, the hepatocyte CLint in “in vitro [3]” amounted to 14.3 µL/min/1e6 cells. Besides, the pKa in the data set “physchem [4]” was determined as 5.2.

For the compound `N#Cc1c(O)nc(N)nc1-c1ccccc1`, the fraction unbound at 5 h in “in vitro [6]” (PPB) and in the data set “in vitro [1]” was 0.0366 throughout. For the same compound, the pKa in “physchem [4]” worked out at 6.52.

In turn, `O=C(O)c1ccc(-c2ccc(Cl)c(C(=O)NCC34CC5CC(CC(C5)C3)C4)c2)cc1` displayed a logD in the data set “physchem [5]” (pH 7.4, LogD7.4) of 2.48. In addition, the fraction unbound at 5 h in “in vitro [6]” (PPB) was 0.0077; in “in vitro [1]” it was 0.0074. Also, the pKa in the data set “physchem [4]” was 4.1.

Compound `CC(=O)Nc1ccc(O)cc1` [ACETAMINOPHEN] gave a pH-dependent lipophilicity (logD) in the data set “physchem [5]” (pH 7.4, LogD7.4) of 0.25. Moreover, in the data set “in vitro [6]”, the unbound share (fraction unbound) at 5 h is 0.734. The compound also showed a pKa in the data set “physchem [4]” of 9.48.

Turning to `NS(=O)(=O)c1cc(C2(O)NC(=O)c3ccccc32)ccc1Cl` (centres undefined) [CHLORTHALIDONE], the log distribution coefficient (logD) in “physchem [5]” (pH 7.4) came to 0.97. Moreover, the solubility (thermodynamic) in the data set “physchem [7]” amounted to 501 µM (≈ 170 µg/mL). In “physchem [4]”, this compound displayed a pKa of 9.11.

`CC1=NS(=O)(=O)c2cc(Cl)ccc2N1` [DIAZOXIDE] yielded a logD in the data set “physchem [5]” (pH 7.4, LogD7.4) of 1.05. In the data set “physchem [4]”, the pKa is 8.42.

Take `CCCCc1oc2ccc(NS(C)(=O)=O)cc2c1C(=O)c1ccc(OCCCN(CCCC)CCCC)cc1` [DRONEDARONE]: the fraction unbound at 5 h in “in vitro [6]” (PPB) was 0.0009. In “physchem [4]”, this compound had a pKa of 7.69.

In “physchem [5]” (pH 7.4), `O=C(O)c1ccccc1Nc1cccc(C(F)(F)F)c1` [FLUFENAMIC ACID] registered a pH-dependent lipophilicity (logD) of 2.01. The pKa in “physchem [4]” was found to be 3.56.

`C[C@@H](C(=O)NS(C)(=O)=O)c1ccc(OS(=O)(=O)C(F)(F)F)cc1` [LADARIXIN] registered a microsomal CLint in the data set “in vitro [2]” (liver microsomes) below 3 µL/min/mg. This compound yielded a hepatocyte CLint in the data set “in vitro [3]” below 3 µL/min/1e6 cells. The pKa in “physchem [4]” amounted to 3.1.

With `O=C(O)CCc1nc(-c2ccccc2)c(-c2ccccc2)o1` [OXAPROZIN], the fraction unbound at 5 h is 0.0005 in “in vitro [6]” (PPB) and 0.0024 in the data set “in vitro [1]”. The pKa in “physchem [4]” came to 3.87.

Take `Cc1nnc(NS(=O)(=O)c2ccc(N)cc2)s1` [SULFAMETHIZOLE]: in “physchem [5]” (pH 7.4, LogD7.4), the log distribution coefficient (logD) was -1.33. The same compound gave a fraction unbound at 5 h in the data set “in vitro [6]” (PPB) of 0.0647. The compound further yielded a pKa in the data set “physchem [4]” of 5.4.

Take `Nc1ccc(S(=O)(=O)Nc2nccs2)cc1` [SULFATHIAZOLE]: the logD in “physchem [5]” (pH 7.4, LogD7.4) was -0.37. Also, in the data set “physchem [4]”, the pKa stood at 7.01.

With `Cc1ccc(S(=O)(=O)NC(=O)NN2CCCCCC2)cc1` [TOLAZAMIDE], in “physchem [5]” (pH 7.4, LogD7.4), the logD came out at 0.01. The pKa in the data set “physchem [4]” came to 5.8.
